Reference: article PMC10461823, “ABCH2 transporter mediates deltamethrin uptake and toxicity in the malaria vector Anopheles coluzzii” (PLOS Pathogens, 2023)
One block for each molecule: values may come before it.

Tests used:
[1] = biological target: T1, ABCH2 (Anopheles coluzzii, UniProt A0A6E8VHH0); assay: malachite green ATPase assay, Sf9 inverted membrane vesicles; format: biochemical; conditions: basal activity without deltamethrin, 1 mM ATP, MgCl2, Tris pH 8, 37 C, 15 min; empty-bacmid background subtracted
T1 construct: full ORF, codon-optimised for S. frugiperda, pFastBac1 baculovirus in Sf9 cells, untagged, membrane vesicles; about 85 kDa half-transporter, proposed homodimer
T1 sequence (A0A6E8VHH0 1-760): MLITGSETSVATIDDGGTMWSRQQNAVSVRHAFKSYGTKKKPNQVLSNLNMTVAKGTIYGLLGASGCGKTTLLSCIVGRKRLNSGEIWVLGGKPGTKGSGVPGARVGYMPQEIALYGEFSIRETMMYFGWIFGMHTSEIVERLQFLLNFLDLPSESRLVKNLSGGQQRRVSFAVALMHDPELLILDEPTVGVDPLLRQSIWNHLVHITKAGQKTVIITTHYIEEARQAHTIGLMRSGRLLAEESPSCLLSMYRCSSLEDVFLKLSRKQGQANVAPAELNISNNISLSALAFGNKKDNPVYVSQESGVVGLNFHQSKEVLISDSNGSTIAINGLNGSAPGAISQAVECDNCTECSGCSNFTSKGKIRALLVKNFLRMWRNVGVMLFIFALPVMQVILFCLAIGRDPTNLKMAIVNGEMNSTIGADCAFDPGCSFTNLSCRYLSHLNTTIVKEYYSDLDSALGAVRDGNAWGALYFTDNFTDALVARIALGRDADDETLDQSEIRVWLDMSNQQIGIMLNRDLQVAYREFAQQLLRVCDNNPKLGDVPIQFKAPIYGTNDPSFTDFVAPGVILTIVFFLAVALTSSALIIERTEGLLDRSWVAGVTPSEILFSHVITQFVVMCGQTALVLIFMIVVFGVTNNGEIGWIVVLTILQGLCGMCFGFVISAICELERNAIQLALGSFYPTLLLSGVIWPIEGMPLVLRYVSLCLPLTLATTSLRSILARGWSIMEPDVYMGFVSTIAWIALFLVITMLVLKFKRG

[2] = biological target: T1, ABCH2; assay: as above; format: biochemical; conditions: 120 uM deltamethrin, DMSO/ethanol, 1 mM ATP, MgCl2, Tris pH 8, 37 C, 15 min; empty-bacmid background subtracted; transport not shown directly
[3] = biological target: ABCH2 transporter (ATP-Binding Cassette transporter from the H family) of Anopheles coluzzii (Anopheles coluzzii)

Molecule: Nc1ncnc2c1ncn2[C@@H]1O[C@H](COP(=O)(O)OP(=O)(O)OP(=O)(O)O)[C@@H](O)[C@H]1O [ATP]
malachite green ATPase assay, Sf9 inverted membrane vesicles [1]: indicate an ATP hydrolysis specific to ABCH2 expression

Molecule: CC1(C)[C@H](C(=O)O[C@H](C#N)c2cccc(Oc3ccccc3)c2)[C@@H]1C=C(Br)Br [deltamethrin]
fold stimulation of basal ATPase activity at 120 uM [2]: ~ 1.6 fold

estimated basal rate of ATP hydrolysis of ABCH2 in inverted membrane vesicles of Sf9 cells expressing ABCH2 on its own (pmoles Pi/pmol ABCH2/minute) [3]: 178
Molecule: ABCH2 transporter (ATP-Binding Cassette transporter from the H family) of Anopheles coluzzii (natural protein)
